{"source": "patent US9758541B2", "about": "(priority 2013, dated 2017)"}
{"test_system": "Mia-PaCa cells (pancreatic cancer cells)", "conditions": "read-out: IC50 (μM) of P53, Table 2, 72 h exposure, MTS", "units": {"IC50": "µM"}}
{"substance": "2-ferrocenyl-1,1-bis-(4-hydroxyphenyl)-5-hydroxy-pent-1-ene [P53]", "IC50": 1.23}
{"test_system": "PC3 cells (non-hormone-dependent prostate cancer cells)", "conditions": "read-out: IC50 (μM) of P53, Table 2, 72 h exposure, MTS", "units": {"IC50": "µM"}}
{"substance": "2-ferrocenyl-1,1-bis-(4-hydroxyphenyl)-5-hydroxy-pent-1-ene [P53]", "IC50": 4.43}
{"test_system": "MDA-MB-231 cells (non-hormone-dependent breast cancer cells)", "type": "cell-based", "conditions": "not given", "units": {"IC50": "µM"}}
{"substance": "1,1-bis-(4-hydroxyphenyl)-5-hydroxy-2-ruthenocenyl-pent-1-en [W3]", "IC50": 12.5}
{"substance": "2,3-Dihydro-3-hydroxy-2-[4-ferrocenyl-5,5-bis-(4-hydroxyphenyl)-pent-4-enyl]-1H-isoindol-1-one [P710]", "IC50": 0.59}
{"substance": "2,3-Dihydro-3-methoxy-2-[5-ferrocenyl-6,6-bis-(4-hydroxyphenyl)-hex-5-enyl]-1H-isoindol-1-one [P727]", "IC50": 1.63}
{"substance": "2-ferrocenyl-1,1-bis-(4-hydroxyphenyl)-5-dimethylamino-pent-1-ene [P697]", "IC50": 2.53}
{"substance": "2-ferrocenyl-1-(4-hydroxyphenyl)-5-hydroxy-1-phenyl-pent-1-ene [P681]", "IC50": 1.22}
{"substance": "Ethyl 3-ene-3-ferrocenyl-4,4-bis-(4-hydroxyphenyl)-butanoate [P64]", "IC50": 1.16}
{"substance": "Methyl 6-ene-6-ferrocenyl-7,7-bis-(4-hydroxyphenyl)-heptanoate [P504]", "IC50": 0.62}
{"substance": "N-{4-ferrocenyl-5,5-bis-(4-hydroxyphenyl)-pent-4-enyl}phthalimide [P686]", "IC50": 0.2}
{"substance": "N-{5-ferrocenyl-6,6-bis-(4-hydroxyphenyl)-hex-5-enyl}phthalimide [P720]", "IC50": 0.33}
